Common to all, as to type: biochemical
In one assay the target is CSNK1A1 (Homo sapiens (Human), UniProt P48729). Briefly: CSNK1A1 Assay 2 (ADP-Glo, 1 μM ATP). As to conditions: median, read-out: CSNK1A1 Assay 2 IC50 [mol/l] (median). A digest of the protocol: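 ADP-Glo luminescence, taken as ADP formed, reports activity against biotinylated phospho-peptide substrate biotin-Ahx-KRRRAL-pS-VASLPGL at 1 μM ATP.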
In general terms: In ADP-Glo the light output rises with the ADP produced.

The target in a further assay is CSNK1D (Homo sapiens (Human), UniProt P48730). As to the kind of experiment: CSNK1D Assay (ADP-Glo, 1 μM ATP). To be noted: median, read-out: CSNK1D IC50 [mol/l] (median). The essentials:
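Enzyme preincubated with compound 15 min at 22° C in 50 mM HEPES pH 7.5 buffer with 10 mM MgCl2, 1 mM DTT; kinase reaction run at 1 μM ATP with biotinylated peptide substrate. ADP formed was detected by ADP-Glo luminescence as the measure of activity.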

The target of assay [1] is wild-type Epidermal Growth Factor Receptor (EGFR) (Homo sapiens (Human), UniProt P00533). As to the kind of experiment: WT-EGFR Kinase Assay (TR-FRET, 2 mM ATP). The essentials:
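TR-FRET read-out of biotinylated peptide phosphorylation, taken as the 665/622 nm ratio after EDTA stop and 1 h detection at 22° C. Kinase: GST fusion of human EGFR aa R669–A1210, given a 15 min compound pre-binding step; reaction run at 2 mM ATP.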

[2] abbreviates: EGFR Wildtyp 2 mM ATP IC50 [mol/l] (median), median or individual measurements.
Where [3] appears, read: read-out: EGFR Wildtyp 2 mM ATP IC50 [mol/l] (median), median or individual measurements.

Each structure is given as a SMILES string. Read-outs that look alike come from different tables or passages of the source. Where only a bound is given, the exact number is not on record here.

Chain of wild-type Epidermal Growth Factor Receptor (EGFR) (P00533 669-1210): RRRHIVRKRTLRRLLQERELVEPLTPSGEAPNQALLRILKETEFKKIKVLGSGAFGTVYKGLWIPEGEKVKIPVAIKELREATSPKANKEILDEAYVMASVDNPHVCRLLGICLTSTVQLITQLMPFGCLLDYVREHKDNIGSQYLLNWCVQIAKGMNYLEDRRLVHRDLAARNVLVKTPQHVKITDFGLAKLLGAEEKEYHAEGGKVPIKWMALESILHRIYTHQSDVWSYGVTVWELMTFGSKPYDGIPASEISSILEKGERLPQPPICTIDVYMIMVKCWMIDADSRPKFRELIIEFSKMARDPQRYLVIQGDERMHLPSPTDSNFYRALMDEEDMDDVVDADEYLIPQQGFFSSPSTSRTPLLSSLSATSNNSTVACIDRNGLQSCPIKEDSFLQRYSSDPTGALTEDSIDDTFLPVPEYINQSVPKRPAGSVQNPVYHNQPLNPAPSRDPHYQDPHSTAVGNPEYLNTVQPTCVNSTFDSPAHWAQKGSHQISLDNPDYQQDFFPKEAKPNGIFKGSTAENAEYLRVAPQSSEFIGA
Chain of CSNK1D (P48730 whole entry): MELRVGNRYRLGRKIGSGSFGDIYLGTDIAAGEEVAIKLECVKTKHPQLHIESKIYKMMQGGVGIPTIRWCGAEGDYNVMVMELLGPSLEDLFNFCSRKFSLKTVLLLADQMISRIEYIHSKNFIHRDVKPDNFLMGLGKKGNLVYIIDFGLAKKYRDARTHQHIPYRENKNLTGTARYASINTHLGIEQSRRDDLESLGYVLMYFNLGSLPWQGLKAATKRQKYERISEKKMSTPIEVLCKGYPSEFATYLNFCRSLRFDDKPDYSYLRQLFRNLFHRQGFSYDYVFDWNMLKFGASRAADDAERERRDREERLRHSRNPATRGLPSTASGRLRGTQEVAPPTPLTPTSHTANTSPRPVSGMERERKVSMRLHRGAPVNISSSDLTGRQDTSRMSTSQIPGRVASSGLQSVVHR
Chain of CSNK1A1 (P48729 whole entry): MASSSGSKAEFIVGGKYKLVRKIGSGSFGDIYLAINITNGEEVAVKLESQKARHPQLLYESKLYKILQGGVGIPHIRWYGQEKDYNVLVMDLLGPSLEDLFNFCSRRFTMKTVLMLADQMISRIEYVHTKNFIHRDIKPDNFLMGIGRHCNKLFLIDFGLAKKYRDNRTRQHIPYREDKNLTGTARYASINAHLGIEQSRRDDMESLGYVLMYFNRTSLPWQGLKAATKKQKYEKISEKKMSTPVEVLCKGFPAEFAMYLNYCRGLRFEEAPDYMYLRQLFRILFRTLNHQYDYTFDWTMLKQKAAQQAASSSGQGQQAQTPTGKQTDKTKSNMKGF

For the compound `CN1CC(C)(C)c2[nH]c(-c3ccnc(NC(=O)C(CC(F)F)c4ccc(F)cc4)c3)c(-c3ccccc3)c2C1=O` (racemic) [Example 150, (rac)-4,4-difluoro-2-(4-fluorophenyl)-N-[4-(5,7,7-trimethyl-4-oxo-3-phenyl-4,5,6,7-tetrahydro-1H-pyrrolo[3,2-c]pyridin-2-yl)pyridin-2-yl]butanamide], the IC50 on CSNK1A1 is 4.1 nM; at CSNK1D it was 3.8 nM; in assay [1] (setting [2]), more than 20000 nM.

Consider `Cc1ccc(-c2c(-c3ccnc(NC(=O)C(C)c4ccc(F)cc4)c3)[nH]c3c2C(=O)NC(C)(C)C3)cc1` (racemic) [Example 91, N-{4-[6,6-dimethyl-3-(4-methylphenyl)-4-oxo-4,5,6,7-tetrahydro-1H-pyrrolo[3,2-c]pyridin-2-yl]pyridin-2-yl}-2-(4-fluorophenyl)propanamide], for which the IC50 on CSNK1A1 is 7.7 nM; at CSNK1D, 7.6 nM; in assay [1] (setting [2]), more than 20000 nM.

Take `CC(C(=O)Nc1cc(-c2[nH]c3ccn(C)c(=O)c3c2-c2ccccc2Cl)ccn1)c1ccc(F)cc1` (racemic) [Example 112, N-{4-[3-(2-chlorophenyl)-5-methyl-4-oxo-4,5-dihydro-1H-pyrrolo[3,2-c]pyridin-2-yl]pyridin-2-yl}-2-(4-fluorophenyl)propanamide]: the IC50 at CSNK1A1 is 23 nM; on CSNK1D, 14 nM; in assay [1] (setting [2]), more than 20000 nM.

As to `CC(C(=O)Nc1cc(-c2[nH]c3c(c2-c2ccccc2)C(=O)N(C)CC3)ccn1)c1ccncc1` (racemic) [Example 153, (Rac)-N-[4-(5-methyl-4-oxo-3-phenyl-4,5,6,7-tetrahydro-1H-pyrrolo[3,2-c]pyridin-2-yl)pyridin-2-yl]-2-(pyridin-4-yl)propanamide], the IC50 on CSNK1A1 was 2 nM; at CSNK1D it was 2.4 nM; in assay [1] (setting [2]), more than 20000 nM.

Turning to `CN1CCc2[nH]c(-c3ccnc(NC(=O)C(CC(F)F)c4ccc(F)cc4)c3)c(-c3ccc(F)cc3)c2C1=O` (racemic) [Example 139, 4,4-difluoro-2-(4-fluorophenyl)-N-{4-[3-(4-fluorophenyl)-5-methyl-4-oxo-4,5,6,7-tetrahydro-1H-pyrrolo[3,2-c]pyridin-2-yl]pyridin-2-yl}butanamide], the IC50 on CSNK1A1 is 4.2 nM; at CSNK1D, 5.5 nM; in assay [1] (setting [2]) it was more than 20000 nM.

Take `CC(C(=O)Nc1cc(-c2[nH]c3ccn(C)c(=O)c3c2-c2ccoc2)ccn1)c1ccc(F)cc1` (racemic) [Example 115, 2-(4-fluorophenyl)-N-{4-[3-(3-furyl)-5-methyl-4-oxo-4,5-dihydro-1H-pyrrolo[3,2-c]pyridin-2-yl]pyridin-2-yl}propanamide]: the IC50 is 2.2 nM on CSNK1A1, 5.6 nM at CSNK1D and more than 20000 nM in assay [1] (setting [2]).

Consider `COCCNC(=O)c1ccc(CC(=O)Nc2cc(-c3[nH]c4ccn(C)c(=O)c4c3-c3ccc(F)cc3)ccn2)cc1` [Example 142, 4-[2-({4-[3-(4-fluorophenyl)-5-methyl-4-oxo-4,5-dihydro-1H-pyrrolo[3,2-c]pyridin-2-yl]pyridin-2-yl}amino)-2-oxoethyl]-N-(2-methoxyethyl)benzamide], for which the IC50 is 2.7 nM on CSNK1A1, 3.8 nM at CSNK1D and more than 20000 nM in assay [1] (setting [3]).

On to `O=C(Cc1ccc(F)cc1)Nc1cc(-c2[nH]c3ccn(C4CC4)c(=O)c3c2-c2ccccc2)ccn1` [Example 159, N-[4-(5-cyclopropyl-4-oxo-3-phenyl-4,5-dihydro-1H-pyrrolo[3,2-c]pyridin-2-yl)pyridin-2-yl]-2-(4-fluorophenyl)acetamide], for which the IC50 at CSNK1A1 was 0.96 nM; on CSNK1D, 1.6 nM; in assay [1] (setting [3]), more than 20000 nM.

For the compound `CC(C(=O)Nc1cc(-c2[nH]c3ccn(C)c(=O)c3c2-c2cc(F)ccc2C#N)ccn1)c1ccc(F)cc1` (racemic) [Example 127, N-{4-[3-(2-cyano-5-fluorophenyl)-5-methyl-4-oxo-4,5-dihydro-1H-pyrrolo[3,2-c]pyridin-2-yl]pyridin-2-yl}-2-(4-fluorophenyl)propanamide], the values for the IC50 (at CSNK1A1; at CSNK1D; in assay [1] (setting [2])) were 33 nM, 33 nM and more than 20000 nM, respectively.

Consider `O=C(Nc1cc(-c2[nH]c3ccn(C4CC4)c(=O)c3c2-c2ccc(F)cc2)ccn1)C(CC(F)F)c1ccc(F)cc1` (single isomer, unassigned; (-)) [Example 135, (−)-N-{4-[5-cyclopropyl-3-(4-fluorophenyl)-4-oxo-4,5-dihydro-1H-pyrrolo[3,2-c]pyridin-2-yl]pyridin-2-yl}-4,4-difluoro-2-(4-fluorophenyl)butanamide], for which the IC50 at CSNK1A1 is 7.8 nM; on CSNK1D, 5.4 nM; in assay [1] (setting [2]), more than 20000 nM.

Consider `Cc1ccccc1-c1c(-c2ccnc(NC(=O)C(C)c3ccc(F)cc3)c2)[nH]c2ccn(C)c(=O)c12` (racemic) [Example 111, 2-(4-fluorophenyl)-N-{4-[5-methyl-3-(2-methylphenyl)-4-oxo-4,5-dihydro-1H-pyrrolo[3,2-c]pyridin-2-yl]pyridin-2-yl}propanamide], for which the IC50 on CSNK1A1 is 37 nM; on CSNK1D, 22 nM; in assay [1] (setting [2]) it was more than 20000 nM.

As to `CC(C(=O)Nc1cc(-c2[nH]c3c(c2-c2ccc(F)cc2F)C(=O)N(C)CC3)ccn1)c1ccc(F)cc1` (single isomer, unassigned) [Example 70, N-{4-[3-(2,4-difluorophenyl)-5-methyl-4-oxo-4,5,6,7-tetrahydro-1H-pyrrolo[3,2-c]pyridin-2-yl]pyridin-2-yl}-2-(4-fluorophenyl)propanamide], the IC50 at CSNK1A1 was 16 nM; at CSNK1D it was 7.6 nM; in assay [1] (setting [2]), more than 20000 nM.

Take `CC(C(=O)Nc1cc(-c2[nH]c3ccn(C)c(=O)c3c2-c2ccnc(N)c2)ccn1)c1ccc(F)cc1` (racemic) [Example 126, N-{4-[3-(2-aminopyridin-4-yl)-5-methyl-4-oxo-4,5-dihydro-1H-pyrrolo[3,2-c]pyridin-2-yl]pyridin-2-yl}-2-(4-fluorophenyl)propanamide]: the IC50 on CSNK1A1 was 55 nM; on CSNK1D it was 63 nM; in assay [1] (setting [2]) it was more than 20000 nM.

As to `COCCN(C)C(=O)c1ccc(CC(=O)Nc2cc(-c3[nH]c4ccn(C)c(=O)c4c3-c3ccc(F)cc3)ccn2)cc1` [Example 143, 4-[2-({4-[3-(4-fluorophenyl)-5-methyl-4-oxo-4,5-dihydro-1H-pyrrolo[3,2-c]pyridin-2-yl]pyridin-2-yl}amino)-2-oxoethyl]-N-(2-methoxyethyl)-N-methylbenzamide], the IC50 is 4 nM on CSNK1A1, 2.7 nM on CSNK1D and more than 20000 nM in assay [1] (setting [3]).

`CN1CCc2[nH]c(-c3ccnc(NC(=O)C(CC(F)F)c4ccc(F)cc4)c3)c(-c3cscn3)c2C1=O` (racemic) [Example 138, 4,4-difluoro-2-(4-fluorophenyl)-N-{4-[5-methyl-4-oxo-3-(1,3-thiazol-4-yl)-4,5,6,7-tetrahydro-1H-pyrrolo[3,2-c]pyridin-2-yl]pyridin-2-yl}butanamide]: the IC50 on CSNK1A1 is 8.9 nM; on CSNK1D, 8.8 nM; in assay [1] (setting [2]) it was more than 20000 nM.

On to `CC(C(=O)Nc1cc(-c2[nH]c3ccn(C)c(=O)c3c2-c2cccc(Cl)c2)ccn1)c1ccc(F)cc1` (racemic) [Example 106, N-{4-[3-(3-chlorophenyl)-5-methyl-4-oxo-4,5-dihydro-1H-pyrrolo[3,2-c]pyridin-2-yl]pyridin-2-yl}-2-(4-fluorophenyl)propanamide], for which the IC50 is 9.2 nM on CSNK1A1, 11 nM on CSNK1D and more than 20000 nM in assay [1] (setting [2]).

As to `CN1CCc2[nH]c(-c3ccnc(NC(=O)C(CC(F)F)c4ccc(F)cc4)c3)c(-c3ccc(F)cc3F)c2C1=O` (single isomer, unassigned) [Example 68, N-{4-[3-(2,4-difluorophenyl)-5-methyl-4-oxo-4,5,6,7-tetrahydro-1H-pyrrolo[3,2-c]pyridin-2-yl]pyridin-2-yl}-4,4-difluoro-2-(4-fluorophenyl)butanamide], the IC50 is 4.1 nM on CSNK1A1, 5.6 nM at CSNK1D and more than 20000 nM in assay [1] (setting [3]).

For the compound `O=C(Cc1ccc(F)cc1)Nc1cc(-c2[nH]c3c(c2-c2ccccc2)C(=O)NCC3)ccn1` [Example 72, 2-(4-fluorophenyl)-N-[4-(4-oxo-3-phenyl-4,5,6,7-tetrahydro-1H-pyrrolo[3,2-c]pyridin-2-yl)pyridin-2-yl]acetamide], the IC50 was 0.66 nM on CSNK1A1, 1.3 nM at CSNK1D and more than 20000 nM in assay [1] (setting [3]).

Take `CC(C(=O)Nc1cc(-c2[nH]c3ccn(C)c(=O)c3c2-c2ccccc2C#N)ccn1)c1ccc(F)cc1` (racemic) [Example 123, N-{4-[3-(2-cyanophenyl)-5-methyl-4-oxo-4,5-dihydro-1H-pyrrolo[3,2-c]pyridin-2-yl]pyridin-2-yl}-2-(4-fluorophenyl)propanamide]: the IC50 on CSNK1A1 was 25 nM; on CSNK1D it was 22 nM; in assay [1] (setting [2]), more than 20000 nM.

As for `CC(C(=O)Nc1cc(-c2[nH]c3c(c2-c2ccccc2F)C(=O)NC(C)(C)C3)ccn1)c1ccc(F)cc1` (stereo not drawn) [Example 87, 2-(4-fluorophenyl)-N-{4-[3-(2-fluorophenyl)-6,6-dimethyl-4-oxo-4,5,6,7-tetrahydro-1H-pyrrolo[3,2-c]pyridin-2-yl]pyridin-2-yl}propanamide], the results for the IC50 (at CSNK1A1; at CSNK1D; in assay [1] (setting [3])) were 12 nM, 13 nM and more than 20000 nM, respectively.

The record behind these values is US20230322767A1, “ARYL SUBSTITUTED PYRROLO-PYRIDINONES AND THERAPEUTIC USES THEREOF” (Bayer Aktiengesellschaft, priority 2020, published 2023).
